In publication PMC6715681, “A high-throughput screen to identify novel synthetic lethal compounds for the treatment of E-cadherin-deficient cells” (Scientific Reports, 2019):
Marks after values point to notes of the source that are not given here.

What was measured:
[1] = tested on: MCF10A WT cells; assay: 11-point dose-response screen, high-content imaging (HCI) of Hoechst 33342 nuclei; type: cell-based; settings: Homo sapiens, MCF-10A, 11-point screen
Method: The 11-point dose-response screen evaluated a concentration range from 0.02 µM to 20 µM for both isogenic cell lines in duplicate biological replicates (Fig. 4). One limitation to metabolism-based cellular assays is that a change in read out (fluorescence, luminescence or absorbance) may not necessarily be caused by cell death and could instead result from a cessation of proliferation due to senescence or inhibited mitochondrial respiration. For this reason, a direct measurement of cell counts using cellular imaging of nuclei stained with Hoechst 33342 was also included at the 11-point screening stage. For the CTB 11-point screen all plates had acceptable Z’ values above 0.4, with the second biological replicate having 70% above 0.6 (Fig. 4A). The Z’ values for the high-content imaging (HCI) 11-point screen plates were above 0.4 for MCF10A WT, except one plate from biological replicate two with 0.396 (Fig. 4B). However, for MCF10A CDH1^−/− HCI data, only four plates were above a Z’ of 0.4 and the mean Z’ was 0.32 compared to a mean of 0.51 for MCF10A WT. A further quality metric known as the strictly standardized mean difference (SSMD)[40] is a less conservative approach for QC and a cut-off of >3 is generally used. The mean SSMD value was 7.04 for MCF10A WT and 5.27 for MCF10A CDH1^−/− plates and indicates the MCF10A CDH1^−/− HCI data was acceptable[41]. There was a good correlation between the top hits from the HCI and CTB 11-point screening with an overlap of 31 / 40 for the top 40 compounds selected from the eventual hit selection strategies.
A direct measurement of cell counts using cellular imaging of nuclei was also included at the 11-point screening stage. Plates were fixed, washed and stained using an ELx405 Select deep well washer (BioTek). Media was first aspirated leaving 10 μL/well, then 4% w/v PFA was added and plates left for 15 minutes at RT. Plates were then washed twice with PBS-T, before aspirating all permeabilization buffer and adding Hoechst 33342 (1 μg/mL final) in PBS. Plates were then stored in the dark at 4 °C, until being imaged on a BD Pathway 855. Two 10x images per well were taken and cell counts enumerated using CellProfiler[48].

[2] = tested on: MCF10A WT cells; assay: IncuCyte real-time live cell imaging (cell confluence); type: cell-based, human; settings: 2.5–20 μM, 48 hours
Method: (§1) Real-time viability assays were performed on the two lead compounds SLEC-8 and SLEC-11 using the two isogenic MCF10A cell lines. The IncuCyte and xCELLigence assay systems quantify cell growth over the drugging period in real-time, allowing for the assessment of even subtle growth inhibitory effects following compound treatment. The IncuCyte was used in combination with an end-point assay (nuclei counting) to give both live cell imaging and normalized cell counts for each plate.
(§2) Figure 9 IncuCyte validation data for lead compounds 8 and 11. (A) Timeline for the combined live cell imaging and end-point viability assays. Plates were seeded 4,000 cells/well as described in the Methods. (B,C) One hour following compound addition, plates were transferred to the IncuCyte. Three 4x images per well were taken every two hours for 48 hours. An EC80 dose of doxorubicin was used (Supplementary Table 1). Data shown is a representative experiment of three biological replicates. Error bars are SD. The cell confluence v1.5 was calculated using the IncuCyte software. (B) Live cell imaging for SLEC-8. (C) Live cell imaging for SLEC-11. Graphs were created in Excel.
(§3) To calculate growth rates, a trendline was fitted to the linear growth phase of each cell line. The greatest SL difference in the slope of the trendline for SLEC-8 as at 10 μM treatment with 2.0 fold difference for MCF10A CDH1^−/− cells, compared to MCF10A WT. For SLEC-11 the greatest SL difference was at 20 μM, with a 4.0 fold difference in the slope of the trendline for MCF10A CDH1^−/− cells compared to MCF10A WT (data not shown).
(§4) Cells were seeded into each well of Corning’s black walled, clear bottom 96-well plates with a total volume of 100 μL per well. Edge wells were excluded. Both isogenic cell lines were seeded into the same plate to mitigate plate-to-plate variation. Plates for real-time analysis were transferred to the xCELLigence platform (ACEA Biosciences, USA) or the IncuCyte FLR imaging system (Essen BioScience, USA) as previously described.

[3] = tested on: MCF10A CDH1^−/− cells; assay: as above; type: cell-based, human; settings: for Greatest SL difference in the slope of the growth trendline, MCF10A CDH1^−/− compared to MCF10A WT: linear growth phase; for Growth rate effect in MCF10A CDH1^−/− cells (in words): all concentrations between 2.5–20 μM, 48 hours
Method: as §1, §2, §3, §4

[4] = tested on: MCF10A WT cells; assay: Medium-throughput validation in 96-well plates, Hoechst-33342 nuclei counts (CellProfiler); type: cell-based; settings: Homo sapiens, MCF-10A, 96-well validation, at least five concentration points
Method: as §4
(§5) Seventy-two hours post seeding (or 48 hours post compound addition), plates were assayed for cell viability using a one-step cocktail of PFA (0.25% v/v), saponin (0.075% w/v) and Hoechst 33342 (1 μg/ml final) as described previously. CellProfiler was used to enumerate cell counts as previously described.

[5] = tested on: MCF10A CDH1^−/− cells; assay: as above; type: cell-based, human; settings: for EC50 ratio (MCF10A WT/MCF10A CDH1^−/−) / EC50: 96-well validation; for EC50: Hoechst nuclei counts, at least five concentration points; for Differential at 5 µM (%): 48 h post compound addition
Method: as §4, §5

[6] = normalized cell counts MCF10A WT – MCF10A CDH1^−/−, 96-well

Question: How did the EC50 [1] turn out when CC(O)CNCc1ccc(OCc2ccc(Cl)cc2Cl)cc1 (stereo not drawn) [SLEC-8] was run?
Answer: 10.2 µM

Question: And the “Growth reduction in MCF10A WT cells (in words)” value [2]?
Answer: only observed at the higher concentrations

Question: What about the “Greatest SL difference in the slope of the growth trendline, MCF10A CDH1^−/− compared to MCF10A WT” value ([3]; 10 μM treatment) of the same compound?
Answer: 2.0 fold

Question: And the “Growth rate effect in MCF10A CDH1^−/− cells (in words)” value [3]?
Answer: dose-dependent growth rate reduction

Question: And the EC50 [4]?
Answer: 12.4 µM

Question: And the “EC50 ratio (MCF10A WT/MCF10A CDH1^−/−)” value [5]?
Answer: 1.36

Question: What about the EC50 [5] of the same compound?
Answer: 9.07 µM

Question: And the EC50 ([5]; Homo sapiens, MCF-10A)?
Answer: 9.1 µM

Question: What about the “SL differential at 2.5 μM” value ([5]; normalized cell counts MCF10A WT – MCF10A CDH1^−/−, 96-well, 2.5 μM) of the same compound?
Answer: 22.0%

Question: And the “Differential at 5 µM (%)” value [5, 6]?
Answer: 22.8%

Question: What about the “Differential at 5 µM (%)” value ([5]; normalized cell counts MCF10A WT – MCF10A CDH1^−/−, 96-well, listed as 8) of the same compound?
Answer: 22.79* %

Question: COc1ccc2nc(C)cc(NCc3ccc(F)cc3)c2c1 [SLEC-11, N-(4-Fluorobenzyl)-6-methoxy-2-methylquinolin-4-amine] was tested. Which EC50 [1] did it give?
Answer: 14.6 µM

Question: And the “Growth reduction in MCF10A WT cells (in words)” value [2]?
Answer: only observed at the higher concentrations

Question: What about the “Greatest SL difference in the slope of the growth trendline, MCF10A CDH1^−/− compared to MCF10A WT” value ([3]; 20 μM treatment) of the same compound?
Answer: 4.0 fold

Question: And the “Growth rate effect in MCF10A CDH1^−/− cells (in words)” value [3]?
Answer: dose-dependent growth rate reduction

Question: What about the EC50 [4] of the same compound?
Answer: 10.8 µM

Question: What about the “EC50 ratio (MCF10A WT/MCF10A CDH1^−/−)” value [5] of the same compound?
Answer: 1.53

Question: And the EC50 [5]?
Answer: 7.02 µM

Question: What about the EC50 ([5]; Homo sapiens, MCF-10A) of the same compound?
Answer: 7 µM

Question: And the “Differential at 5 µM (%)” value [5, 6]?
Answer: 20.7%

Question: What about the “Differential at 5 µM (%)” value ([5]; normalized cell counts MCF10A WT – MCF10A CDH1^−/−, 96-well, listed as 11) of the same compound?
Answer: 20.74* %
